Tests used:
[1] = tested on: Adenovirus; test: Antiviral activity, plaque test in 293A cells; type: cell-based; details: adenovirus in 293A cells, observation by day
Procedure: Experimental method: 4.59 mg of the compound 125 were weighed and put to a 15 mL centrifugal tube with the addition of 10 mL of sterile water, and dissolved via vortex oscillation until there was no obvious yellow particle, then subpackaged and stored at −20° C., 200 μL/piece (concentration: 1 mM); 2.79 mg Cidofovir (molecular weight: 279) were weighed and added to the 15 mL centrifugal tube, dissolved with the addition of 10 mL sterile water, then subpackaged and stored at −20° C., 200 μL/piece (concentration: 1 mM).
Plaque test: • 1. 293A cells were paved into a 24-well plate with 150,000 cells per well, and cultured at 37° C. for 12-24 h, then used for test after growing to 90%. • 2. 2% low-melting point agarose gel was melted and put to a 56° C. water bath kettle for further use. • 3. Adenovirus having a titer of 10^9 TCID^50/mL was diluted by 10^5 folds; medium in the 24-well plate was removed, and 200 μL of adenoviral diluent was added per well and incubated in a 37° C. 5% CO2 incubator, shaken once every 30 min, and incubated for 1 h in total. • 4. The drug compound 125 to be tested and Cidofovir were double diluted with 2×MEM (16 μL compound 125 was added to 8 mL of 2×MEM, oscillated and mixed well, then 4 mL mixed solution was taken and added to fresh 4 mL of 2×MEM and mixed well, and 5 dilutions were conducted, being 2 μM, 1 μM, 500 nM, 250 nM, and 125 nM, respectively; the maximum concentration of the compound 125 was 1 μM. Similarly, 400 μL Cidofovir was added to 7.6 mL of 2×MEM, oscillated and mixed well, then 4 mL mixed solution was taken and added to fresh 4 mL of 2×MEM and mixed well, and 5 dilutions were conducted, being 50 μM, 25 μM, 12.5 μM, 6.25 μM, and 3.125 μM, respectively); the diluted solution was put at 37° C. for further use. • 4. The viral solution was discarded, and agarose gel preheated at 56° C. was added to 2×MEM by the same volume and mixed well, and then 2 mL of mixed solution was added per well, and incubated at room temperature for 30 min (gel). • 5. […]

[2] = tested on: leukemia cell CCRF-CEM; test: In vitro proliferation inhibition, CCRF-CEM; type: cell-based; details: unit inferred
Procedure: (§1) Test method: pancreatic cancer cells CFPAC-1 were cultured in a Dalbeco-improved Eagle medium with the addition of 10% FBS and 5% double-antibody. CFPAC-1 cancer cells were inoculated into a 96-well plate for incubation for 24 h; in the following day, test compounds having various concentrations of (100, 20, 10, 1, 0.1, 0.01, and 0.001 μM) and positive control agents were added per well; corresponding volume of fresh medium was added to blank control. After addition for 24 h or 48 h, cell proliferation was evaluated by chromogenic reaction of MTT formazan.
(§2) In addition, compounds (I), (II), (III), and (IV) of the present invention have good inhibition activity against the proliferation of other cancer cells, including non-small cell lung cancer cell (H460, H1299), liver tumor cell (HepG2), rectal cancer cell (HT29), leukemia cell (CCRF-CEM), prostate cancer cell (PC-3), ovarian carcinoma cell (SKOV-3), melanoma cell (A375), myeloma cell (RPMI-8226), esophageal carcinoma cell (TE-1), pancreatic cancer cell (CFPAC-1, PANC-1, SW1990, ASPC-1, and BXPC-3), bladder cancer cell (5637), and gastric cancer cell (KATO-III).

[3] = tested on: pancreatic cancer cells CFPAC-1; test: In vitro proliferation inhibition, CFPAC-1; type: cell-based; details: unit inferred
Procedure: as §1, §2

[4] = tested on: pancreatic cancer cell BXPC-3; test: In vitro proliferation inhibition, BXPC-3; type: cell-based; details: unit inferred
Procedure: as §1, §2

[5] = tested on: esophageal carcinoma cell TE-1; test: In vitro proliferation inhibition, TE-1; type: cell-based; details: unit inferred
Procedure: as §1, §2

[6] = tested on: non-small cell lung cancer cell H460; test: In vitro proliferation inhibition, H460; type: cell-based; details: unit inferred
Procedure: as §1, §2

[7] = tested on: MCF-7; test: In vitro inhibition test for cancer cell proliferation (MTT), MCF-7; type: cell-based; details: unit inferred
[8] = tested on: gastric cancer cell KATO-III; test: In vitro proliferation inhibition, KATO-III; type: cell-based; details: unit inferred
Procedure: as §1, §2

[9] = tested on: pancreatic cancer cell ASPC-1; test: In vitro proliferation inhibition, ASPC-1; type: cell-based; details: unit inferred
Procedure: as §1, §2

[10] = tested on: prostate cancer cell PC-3; test: In vitro proliferation inhibition, PC-3; type: cell-based; details: unit inferred
Procedure: as §1, §2

[11] = tested on: pancreatic cancer cell SW1990; test: In vitro proliferation inhibition, SW1990; type: cell-based; details: unit inferred
Procedure: as §1, §2

[12] = tested on: rectal cancer cell HT29; test: In vitro proliferation inhibition, HT29; type: cell-based; details: unit inferred
Procedure: as §1, §2

[13] = tested on: non-small cell lung cancer cell H1299; test: In vitro proliferation inhibition, H1299; type: cell-based; details: unit inferred
Procedure: as §1, §2

[14] = tested on: liver tumor cell HepG2; test: In vitro proliferation inhibition, HepG2; type: cell-based; details: unit inferred
Procedure: as §1, §2

[15] = tested on: melanoma cell A375; test: In vitro proliferation inhibition, A375; type: cell-based; details: unit inferred
Procedure: as §1, §2

[16] = tested on: CFPAC-1 pancreatic cancer cells; test: In vivo inhibition test of cancer cell proliferation, CFPAC-1 transplant; design: species or system Balb/c naked mouse; details: 7 mg/kg, once every other three days, 7 times; gross tumor volume
Procedure: Test method: 3×10^7 CFPAC-1 pancreatic cancer cells were transplanted to subcutaneous tissues of armpit of a Balb/c naked mouse; administration was conducted when the tumor grew to 50-100 mm^3, 100-200 mm^3, and greater than 200 mm^3; the mouse was administered once every other three days, 7 times in total, and 7 mg/kg each time. Normal saline was injected in the control group. Tumor length and diameter were measured by calipers and weight of the moue was weighed until the next day of the final administration. Gross tumor volume was calculated by the following equation:
gross tumor volume (mm^3)=½×[short diameter (mm)]^2×long diameter (mm)

[17] = tested on: A549; test: In vitro inhibition test for cancer cell proliferation (MTT), A549; type: cell-based; details: unit inferred
[18] = tested on: pancreatic cancer cell PANC-1; test: In vitro proliferation inhibition, PANC-1; type: cell-based; details: unit inferred
Procedure: as §1, §2

[19] = tested on: L929; test: In vitro cell proliferation inhibition test (MTT), L929; type: cell-based; details: unit inferred
[20] = tested on: ovarian carcinoma cell SKOV-3; test: In vitro proliferation inhibition, SKOV-3; type: cell-based; details: unit inferred
Procedure: as §1, §2

[21] = tested on: HeLa; test: In vitro inhibition test for cancer cell proliferation (MTT), HeLa; type: cell-based; details: 24 h or 48 h after addition, unit inferred
[22] = tested on: bladder cancer cell 5637; test: In vitro proliferation inhibition, 5637; type: cell-based; details: unit inferred
Procedure: as §1, §2

[23] = tested on: myeloma cell RPMI-8226; test: In vitro proliferation inhibition, RPMI-8226; type: cell-based; details: unit inferred
Procedure: as §1, §2

[24] = Homo sapiens, MCF7, 24 h or 48 h after addition
[25] = Homo sapiens, A549, 24 h or 48 h after addition
[26] = Mus musculus, L929, 24 h or 48 h after addition

Row | Compound | non-CPE blank plaques observed [1] | IC50 [2] [nM] | IC50 [3] [nM] | IC50 [4] [nM] | IC50 [5] [nM] | IC50 [6] [nM] | IC50 ([7]; 24 h or 48 h after addition) [nM] | IC50 [8] [nM] | IC50 [9] [nM] | IC50 [10] [nM] | IC50 [11] [nM] | IC50 [12] [nM] | IC50 [13] [nM] | IC50 [14] [nM] | IC50 [15] [nM] | proliferation inhibition activity / inhibition ratio [16] [%] | IC50 ([17]; 24 h or 48 h after addition) [nM] | IC50 [18] [nM] | IC50 ([19]; 24 h or 48 h after addition) [nM] | IC50 [21] [nM] | other results
1 | Nc1ccn(C[C@@H](CO)OCP(=O)(O)O)c(=O)n1 [Cidofovir, reference compound] | 4 days later, lots of blank plaques formed by non-CPE could be observed |  |  |  |  |  |  |  |  |  |  |  |  |  |  |  |  |  |  |  | 
2 | CON=C1c2ccccc2C(=O)c2c1[n+](C)cn2C.[I-] [Compound 123, (E) and (Z)-4-(methoxylimino)-1,3-dimethyl-9-oxo-4,9-dihydro-1H-naphthol[2,3-d]imidazole-3-iodide] |  | 120 | 7 | 4 | 70 | 220 | 1800 | 10 | 7 | 13500 | 8 | 6700 | 430 | 10 | 4650 | 100 | 7 | 760 | 3800 | 23000 | IC50 [20]: 90 nM; IC50 [22]: 50 nM; IC50 [23]: 90900 nM
3 | CCON=C1c2ccccc2C(=O)c2c1[n+](C)cn2C.[I-] [Compound 124, (E) and (Z)-4-(ethoxylimino)-1,3-dimethyl-9-oxo-4,9-dihydro-1H-naphthol[2,3-d]imidazole-3-iodide] |  | 220 | 9 | 6 | 80 | 340 | 3300 | 20 | 8 | 23100 | 9 | 7900 | 450 | 20 | 5650 | 100 | 9 | 890 | 4600 | 11300 | IC50 [20]: 100 nM; IC50 [22]: 60 nM; IC50 [23]: 99200 nM
4 | CC(C)ON=C1c2ccccc2C(=O)c2c1[n+](C)cn2C.[I-] [Compound 127, (E) and (Z)-4-(isopropoxyimino)-1,3-dimethyl-9-oxo-4,9-dihydro-1H-naphthol[2,3-d]imidazole-3-iodide] | 5 days later, non-CPE blank plaque also appeared in the low concentration group |  |  |  |  |  | 7900 |  |  |  |  |  |  |  |  |  | 90 |  | 29600 | 25100 | 
5 | Cn1c[n+](C)c2c1C(=O)c1ccccc1/C2=N\OCCOCc1ccccc1 [Compound 145, (E)-4-((2-(benzyloxy)ethoxy)imino)-1,3-dimethyl-9-oxo-4,9-dihydro-1H-naphthol[2,3-d]imidazole-3-iodide] |  |  |  |  |  |  |  |  |  |  |  |  |  |  |  |  |  |  |  |  | IC50 [7, 24]: 34800 nM; IC50 [17, 25]: 40 nM; IC50 [19, 26]: 45100 nM; IC50 ([21]; Homo sapiens, HeLa): 34200 nM
6 | COCCOCCO/N=C1\c2ccccc2C(=O)c2c1[n+](C)cn2C [Compound 146, (E)-4-((2-(2-methoxyethoxy)ethoxy)imino)-1,3-dimethyl-9-oxo-4,9-dihydro-1H-naphthol[2,3-d]imidazole-3-iodide] |  |  |  |  |  |  |  |  |  |  |  |  |  |  |  |  |  |  |  |  | IC50 [7, 24]: 32800 nM; IC50 [17, 25]: 9 nM; IC50 [19, 26]: 24600 nM; IC50 ([21]; Homo sapiens, HeLa): 23000 nM
